Laboratory results from the supplement of paper PMC11208160.

Test: recombinant barcode read abundance after kanamycin selection (control-corrected) (log10(CPM+1)); higher = more efficient recombination; sequences stand for … in AGTGCAGAGAAAATCGGCCAGTTTTCTCTGCCTGCAGTCCGCATGCCGT…AGATTTATGCAGCGGACTGCCTTTCTCCCAAAGTGATAAACCGGACAGTATCATGGACCGGTTTTCCCGGTAATCCGTATTTGCAAGGTTGGTTTCACT; site = the 11-nt target
In short: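 Recombination efficiency was calculated from barcode counts at recombinant junctions, normalized to counts per million, averaged and corrected by the control. Each value is given as log10(CPM+1). The constructs were Gibson-cloned oligos (promoter, target, barcode, J23119-driven first 104 bridge RNA bases) in a vector with the remaining 73 bp and a T7-inducible recombinase, co-electroporated into E. coli with a donor plasmid and plated in duplicate on chloramphenicol/ampicillin LB agar (control) or chloramphenicol/ampicillin/kanamycin with 0.1 mM IPTG.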
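Further: IS621 recombinase and bridge RNA in Escherichia coli cells.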

Row | Sequence | recombinant barcode read abundance (log10)
1 | CACTTGGCTTGGGTTCTAACCTGTTGCAG (site CACTTGGCTCT) | 0.706
2 | CAGAAGCCTTGGGTTCTAACCTGTTGCCT (site AAGAAGCCTAG) | 0.661
3 | CAGAAGCCTTGGGTTCTAACCTGTTGCCT (site CAGAAGCCTAG) | 1.65
4 | CAGAAGCCTTGGGTTCTAACCTGTTGCCT (site GAGAAGCCTAG) | 0.193
5 | CAGAAGCCTTGGGTTCTAACCTGTTGCCT (site TAGAAGCCTAG) | 0.0644
6 | CAGACTTCTTGGGTTCTAACCTGTTGCCT (site CAGACTTCTAG) | 0.473
7 | CAGACTTCTTGGGTTCTAACCTGTTGCCT (site CCGACTTCTAG) | 0.375
8 | CAGACTTCTTGGGTTCTAACCTGTTGCCT (site CGGACTTCTAG) | 0.039
9 | CAGACTTCTTGGGTTCTAACCTGTTGCCT (site CTGACTTCTAG) | 0.0642
10 | CAGAGCCCTTGGGTTCTAACCTGTTGCTG (site CAGAGCCCTCA) | 1.84
11 | CAGAGCCCTTGGGTTCTAACCTGTTGCTG (site CTGAGCCCTCA) | 0.0157
12 | CAGAGGCCTTGGGTTCTAACCTGTTGCCT (site CAGAGGCCTAG) | 0.224
13 | CAGAGGCCTTGGGTTCTAACCTGTTGCCT (site CAGCGGCCTAG) | 0.376
14 | CAGAGGCCTTGGGTTCTAACCTGTTGCCT (site CAGGGGCCTAG) | 0.149
15 | CAGAGGCCTTGGGTTCTAACCTGTTGCCT (site CAGTGGCCTAG) | 0
16 | CAGAGGTCTTGGGTTCTAACCTGTTGCCT (site CAGAGCTCTAG) | 0
17 | CAGAGGTCTTGGGTTCTAACCTGTTGCCT (site CAGAGGTCTAG) | 1.39
18 | CAGCAAGCTTGGGTTCTAACCTGTTGCCT (site CAGCAAGCTAG) | 1.17
19 | CAGCAAGCTTGGGTTCTAACCTGTTGCCT (site CAGTACGCTAG) | 0.0513
20 | CAGCACTCTTGGGTTCTAACCTGTTGCTA (site CAGCACTCTTA) | 2.12
21 | CAGCACTCTTGGGTTCTAACCTGTTGCTA (site CAGGACTCTAA) | 0.201
22 | CAGCATACTTGGGTTCTAACCTGTTGCCT (site CAGCATACTAG) | 1.74

Row | Sequence | recombinant barcode read abundance (log10)
23 | CAGCATACTTGGGTTCTAACCTGTTGCCT (site CCGCATACTAG) | 0.159
24 | CAGCATACTTGGGTTCTAACCTGTTGCCT (site CGGCATACTAG) | 0.215
25 | CAGCATACTTGGGTTCTAACCTGTTGCCT (site CTGCATACTAG) | 0.0255
26 | CAGCCCTCTTGGGTTCTAACCTGTTGCTA (site CAGCCCTCTTA) | 2.75
27 | CAGCCCTCTTGGGTTCTAACCTGTTGCTA (site CCGCCCTCTAA) | 0.188
28 | CAGCCTTCTTGGGTTCTAACCTGTTGCTT (site CAGCCTTCTAA) | 0.718
29 | CAGCCTTCTTGGGTTCTAACCTGTTGCTT (site CATCCTCCTAA) | 0.0417
30 | CAGCGTGCTTGGGTTCTAACCTGTTGCCT (site CAGCGTGCTAG) | 0.838
31 | CAGCGTGCTTGGGTTCTAACCTGTTGCCT (site CCGCGTGCTAG) | 0.318
32 | CAGCGTGCTTGGGTTCTAACCTGTTGCCT (site CGGCGTGCTAG) | 0.216
33 | CAGCGTGCTTGGGTTCTAACCTGTTGCCT (site CTGCGTGCTAG) | 0.612
34 | CAGGAACCTTGGGTTCTAACCTGTTGCCT (site AAGGAACCTAG) | 0.15
35 | CAGGAACCTTGGGTTCTAACCTGTTGCCT (site CAGGAACCTAG) | 2.01
36 | CAGGAACCTTGGGTTCTAACCTGTTGCCT (site GAGGAACCTAG) | 0.235
37 | CAGGAACCTTGGGTTCTAACCTGTTGCCT (site TAGGAACCTAG) | 0.216
38 | CAGGCCACTTGGGTTCTAACCTGTTGCCT (site CAGGCCACTAG) | 0.945
39 | CAGGCCACTTGGGTTCTAACCTGTTGCCT (site CCGGCCACTAG) | 0.0473
40 | CAGGCCACTTGGGTTCTAACCTGTTGCCT (site CGGGCCACTAG) | 1.04
41 | CAGGCCACTTGGGTTCTAACCTGTTGCCT (site CTGGCCACTAG) | 0.357
42 | CAGTACTCTTGGGTTCTAACCTGTTGCCT (site CAGTAATCTAG) | 0.122
43 | CAGTACTCTTGGGTTCTAACCTGTTGCCT (site CAGTACTCTAG) | 2.29
44 | CAGTACTCTTGGGTTCTAACCTGTTGCCT (site CAGTAGTCTAG) | 0.1

Row | Sequence | recombinant barcode read abundance (log10)
45 | CAGTACTCTTGGGTTCTAACCTGTTGCCT (site CAGTATTCTAG) | 0.0289
46 | CAGTGGCCTTGGGTTCTAACCTGTTGCCT (site CAGAGGCCTAG) | 0.0837
47 | CAGTGGCCTTGGGTTCTAACCTGTTGCCT (site CAGCGGCCTAG) | 0.124
48 | CAGTGGCCTTGGGTTCTAACCTGTTGCCT (site CAGGGGCCTAG) | 0.234
49 | CAGTGGCCTTGGGTTCTAACCTGTTGCCT (site CAGTGGCCTAG) | 0.132
50 | CAGTTCGCTTGGGTTCTAACCTGTTGCCT (site CAGTTAGCTAG) | 0.141
51 | CAGTTCGCTTGGGTTCTAACCTGTTGCCT (site CAGTTCGCTAG) | 1.6
52 | CAGTTCGCTTGGGTTCTAACCTGTTGCCT (site CAGTTGGCTAG) | 0.0461
53 | CAGTTCGCTTGGGTTCTAACCTGTTGCCT (site CAGTTTGCTAG) | 0.0585
54 | CAGTTTGCTTGGGTTCTAACCTGTTGCCT (site CAGTTAGCTAG) | 0.102
55 | CAGTTTGCTTGGGTTCTAACCTGTTGCCT (site CAGTTCGCTAG) | 0.172
56 | CAGTTTGCTTGGGTTCTAACCTGTTGCCT (site CAGTTGGCTAG) | 0
57 | CAGTTTGCTTGGGTTCTAACCTGTTGCCT (site CAGTTTGCTAG) | 0.512
58 | CATAACGCTTGGGTTCTAACCTGTTGCCT (site CATAACGCTAG) | 1.18
59 | CATAACGCTTGGGTTCTAACCTGTTGCCT (site GCATCTACTTA) | 0.102
60 | CATAGAGCTTGGGTTCTAACCTGTTGCCT (site CATAGAGCTAG) | 0.648
61 | CATAGAGCTTGGGTTCTAACCTGTTGCCT (site CATAGGGCTCG) | 0.215
62 | CATAGGGCTTGGGTTCTAACCTGTTGCCG (site CATAGAGCTAG) | 0.0324
63 | CATAGGGCTTGGGTTCTAACCTGTTGCCG (site CATAGGGCTCG) | 1.03
64 | CATAGTCCTTGGGTTCTAACCTGTTGCCA (site CATAGTCCTTG) | 0.299
65 | CATAGTCCTTGGGTTCTAACCTGTTGCCA (site GTACAATCTCT) | 0.112
66 | CATCAGCCTTGGGTTCTAACCTGTTGCGT (site CATCAGCCTAC) | 1.63
